Measurements: patent US9326517B2, “Synergistic combination of a chlorotoluron compound and IPBC for dry film protection” (Dow Global Technologies LLC, priority 2013, dated 2016)

Assays:
[1] = cited from earlier work
[2] = system: Chlorella sp. ATCC 7516; assay: Algal efficacy testing of dry paint films (modified ASTM 5589, 6-well plates); format: cell-based; conditions: 3 weeks; for Total conc: total biocide concentration in paint used as minimum inhibitory concentration for SI, pass level ≧75% inhibition
Experimental: Slurries containing 33% antimicrobial active ingredient (chlorotoluron) were post added to a white, acrylic/silicone based outdoor paint free of biocides to give a total active ingredient concentration of 10000 and 1000 ppm respectively. ROCIMA™ 250 (40% IPBC) was post added to a white, acrylic/silicone based outdoor paint free of biocides to give a total active ingredient concentration of 10000 and 1000 ppm respectively. These paints were then diluted with an antimicrobial free acrylic/silicone based paint and mixed to prepare targeted concentrations of antimicrobial compounds for the testing. The total biocides concentrations tested were 125, 250, 500, 1000, 2000 and 5000 ppm. After biocides addition or dilution, the paints were mixed 90 seconds with the horse power shaker (AXEL 75M3372/Agitateur SO-10MI) until uniformity was achieved. Paints containing different antimicrobial compounds at the same levels were mixed together in order to obtain the desired ratio of antimicrobial compounds. After one day, the paints were applied to Schleicher & Schuell filter paper at 280 μm wet film thickness and dried for 3 days at room temperature avoiding direct exposure to sunlight. Square discs (1.6 cm×1.6 cm) were cut out from each panel and were used as the substrate for algal efficacy tests. This sample size allowed for an agar border when the sample disc was placed into the well of the test plate.
Algal efficacy was tested according to modified ASTM 5589 which is a standard accelerated test method for determining resistance of various coatings (including paints) to algal defacement. To accommodate for high-throughput screening, this method was scaled down from petri dishes to 6-well plates. Bold Modified Basal Freshwater Nutrient Solution was used as growth medium. A single coated filter paper coupon was placed with a pair of sterile forceps at the center of the agar plug (on top) with the painted surface facing upwards. Algal inoculum was prepared by mixing equal concentrations (1×10^6 cfu/ml) and equal volumes of exponentially growing algae cultures.
Each well that contains a tested coupon was inoculated with 1750 μl of algal suspensions (1×10^6 cfu/ml) making sure that the whole surface (paint film as well as the agar surrounding it) was evenly covered. The plates were incubated at room temp (21° C.-25° C.) with cyclic exposure to light and dark phases, for a period of three weeks. The total area inhibited was evaluated at the end of each week according to percent area covered in 5% increments.
At the end of the three week incubation period, the samples were scored for percent inhibition regarding color intensity compared to the blank sample.
The Synergy Index calculation was performed as follows.
The SI is calculated based on F. C. Kull et. […]

| SMILES | solubility in water [1] | Total conc [2] [ppm] | inhibition at 1000 ppm ([2]; 504 h, total conc 1000 ppm in paint) [%] | inhibition at 2000 ppm ([2]; 504 h, total conc 2000 ppm in paint) [%] |
| --- | --- | --- | --- | --- |
| Cc1ccc(NC(=O)N(C)C)cc1Cl [Chlorotoluron, N′-(3-chloro-4-methylphenyl)-N,N-dimethylurea] | relatively low | 1000 | 100 | – |
| CCCCNC(=O)OCC#CI [IPBC, 3-Iodo-2-propynyl butylcarbamate] | – | 2000 | – | 70 |
